The values that follow come from EP0399731B2, “Azaindenes” (AstraZeneca AB, priority 1989, dated 1990).

One may read the inhibition as the drop in the measured response relative to a control, in per cent. A low value points to a weak effect. What is called ED50 is the dose that gives a 50% effect, or the effect in half of the subjects. Broadly, the pA2 is a measure of antagonist potency on a negative log scale.

Test [1] relates to angiotensin II-induced pressor responses. The test can be described thus: Test C: antagonism of angiotensin II-induced pressor responses in terminally-anaesthetised or conscious rats. Type of test: in vivo. Conditions: Rattus norvegicus. The procedure: This in vivo test involves using terminally-anaesthetised or conscious rats in which an arterial catheter has been implanted under anaesthesia for the measurement of changes in blood pressure. The All antagonistic effects of the test compound following oral or parenteral administration, are assessed against angiotensin II-induced pressor responses. To ensure that the effect is specific the effect of the test compound on vasopressin-induced pressor responses may also be determined in the same preparation.

Test [2] relates to All-induced contractions of isolated rabbit aorta. In words: Test B: antagonism of All-induced contractions of isolated rabbit aorta. It counts as cell-based. Conditions: 37°C. The procedure:
This in vitro test involves the measurement of the antagonistic effects of the test compound against All-induced contractions of isolated rabbit aorta, maintained in a physiological salt solution at 37°C. In order to ensure that the effect of the compound is specific to antagonism of All, the effect of the test compound on noradrenaline-induced contractions may also be determined in the same preparation.

In test [3] the target is T1, All (angiotensin II) receptors (Cavia porcellus, UniProt Q9WV26).
T1 construct: from tissue; host or cells: guinea pig adrenal gland, cell surface membrane fraction
T1 sequence (Q9WV26 1-359): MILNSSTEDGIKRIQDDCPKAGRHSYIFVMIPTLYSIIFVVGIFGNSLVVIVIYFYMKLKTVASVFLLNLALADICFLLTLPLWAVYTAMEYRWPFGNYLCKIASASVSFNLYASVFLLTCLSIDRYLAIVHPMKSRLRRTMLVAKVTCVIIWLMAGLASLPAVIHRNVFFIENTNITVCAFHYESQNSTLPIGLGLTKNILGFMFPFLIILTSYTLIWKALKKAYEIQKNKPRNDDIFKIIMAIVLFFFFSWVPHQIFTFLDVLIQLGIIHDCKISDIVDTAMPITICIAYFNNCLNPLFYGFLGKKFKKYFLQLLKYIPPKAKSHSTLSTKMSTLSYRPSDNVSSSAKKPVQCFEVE
The test can be described thus: Test A: displacement of radiolabelled All binding from guinea pig adrenal gland membrane fraction. Conditions: guinea pig adrenal gland membranes; read-out: IC50 (concentration for 50% displacement of radiolabelled All binding). How it is done: This in vitro procedure involves the incubation of the test compound initially at a concentration of 100 micromolar (or less) in a buffered mixture containing fixed concentrations of radiolabelled All and a cell surface membrane fraction prepared from a suitable angiotensin target tissue. In this test, the source of cell surface membranes is the guinea pig adrenal gland which is well known to respond to All. Interaction of the radiolabelled All with its receptors (assessed as radiolabel bound to the particulate membrane fraction following removal of unbound radiolabel by a rapid filtration procedure such as is standard in such studies) is antagonized by compounds which also bind to the membrane receptor sites and the degree of antagonism (observed in the test as displacement of membrane-bound radioactivity) is determined readily by comparing the receptor-bound radioactivity in the presence of the test compound at the specified test concentration with a control value determined in the absence of the test compound. Using this procedure compounds showing at least 50% displacement of radiolabelled All binding at a concentration of 10^-4 M are retested at lower concentrations to determine their potency. […]

In turn, `CCCCc1nc2cccnc2n1Cc1ccc(-c2ccccc2-c2nnn[nH]2)cc1.Cl` [Example 3, 2-butyl-3-[(2'-(1H-tetrazol-5-yl)biphenyl-4-yl)methyl]-3H-imidazo[4,5-b]pyridine hydrochloride] returned an inhibition at 20 mg/kg in test [1] (1 h, after one hour at a dose of 20mg/kg (oral administration)) of 54%. The ED50 in test [1] (parenteral administration) worked out at 1.07 mg/kg. Moreover, the pA2 in test [2] came out at 9.2. Besides, the IC50 in test [3] was 14.9 nM.
